Source: US20140242093A1, “METHODS AND COMPOSITIONS FOR MODULATING THE INNATE IMMUNE RESPONSE AND/OR MYOGENESIS IN A MAMMALIAN SUBJECT” (FRED HUTCHINSON CANCER RESEARCH CENTER, priority 2011, published 2014)

Test system: control human primary myoblasts
Test: Expression microarray of primary myoblasts transduced with lentivirus carrying DUX4-fl, DUX4-s or GFP
Procedure: Primary human myoblasts were collected and cultured as previously described (Snider et al., 2010). Primary myoblasts were maintained at or below 70% confluency for proliferation. For differentiation, cells were allowed to reach 95-100% confluency in growth medium. Once confluency was reached, the cells were changed to differentiation medium (F10 media supplemented with 1% horse serum, 10 μg/mL insulin, and 10 μg/mL transferrin, penicillin/streptomycin) and maintained for 4 days. Human RD cells were grown in DMEM in 10% bovine calf serum (Hyclone) and penicillin/streptomycin. The primary myoblasts were transduced with lentivirus carrying DUX-fl, DUX4- or GFP (MOI=15).
Expression microarrays were performed on the transduced cells at 24 hours after transduction as follows. […] Samples were analyzed by Illumina Human Whole Genome microarrays. Probe intensities were corrected, normalized, and summarized by the Lumi package of Bioconductor (Du et al., 2008). Differentially expressed genes were identified by the LIMMA package of Bioconductor (Wettenhall and Smyth, 2004). Gene set enrichment analysis (GSEA) was performed using the Bioconductor GOstats package (Falcon and Gentleman, 2007).

## DUX4-fl: full-length DUX4 protein (SEQ ID NO:110), expressed from lentiviral or pCS2 vectors or in vitro translated
log2 fc vs lenti-GFP, 24 h
  full_fc PRAMEF13: 7.422
  full_fc PRAMEF15: 7
  full_fc PRAMEF17: 4.223
  full_fc PRAMEF20: 4.795
  full_fc RFPL1: 6.264
  full_fc RFPL1S: 8.396
  full_fc RFPL2: 7.293
  full_fc RFPL3: 8.144
  full_fc RFPL4A: 4.348
  full_fc RFPL4B: 8.34
  full_fc RN5S9: 4.191
  full_fc SFRS2B: 4.215
  full_fc SLC34A2: 5.514
  full_fc SPRYD5: 8.045
  full_fc THOC4: 4.035
  full_fc TPRX1: 4.483
  full_fc TRIM43: 5.806
  full_fc TRIM48: 7.88
  full_fc TRIM49: 6.551
  full_fc TRIM53: 4.778
  full_fc TRIM64: 4.943
  full_fc ZNF217: 4.114
  full_fc ZNF296: 5.536
  full_fc ZNF705A: 6.832
  full_fc ZSCAN4: 8.322
Log 2fc≧5
  number of genes increased 32-fold or more: 72 genes
Vs lenti-GFP, 24 h
  Log2 Fc AMACR: 2.7 log2
  Log2 Fc ARIH1: 2.2 log2
  Log2 Fc ARS2: 2.6 log2
  Log2 Fc CBARA1: 2.1 log2
  Log2 Fc CD24: 2.6 log2
  Log2 Fc CSAG3: 5.9 log2
  Log2 Fc CSE1L: 2.9 log2
  Log2 Fc CWC15: 2.6 log2
  Log2 Fc CXADR: 2.5 log2
  Log2 Fc CXCR4: 2.0 log2
  Log2 Fc DBR1: 3.4 log2
  Log2 Fc DEFB103B: 6.4 log2
  Log2 Fc FBXO33: 3.2 log2
  Log2 Fc FGFR3: 3.1 log2
  Log2 Fc FLJ45337: 3.7 log2
  Log2 Fc GTF2F1: 3.2 log2
  Log2 Fc HNRNPCL1: 3.5 log2
  Log2 Fc HOXB2: 2.2 log2
  Log2 Fc HSPA2: 3.7 log2
  Log2 Fc ID2: 2.3 log2
  Log2 Fc IFRD1: 3.0 log2
  Log2 Fc JUP: 3.2 log2
  Log2 Fc KHDC1L: 8.0 log2
  Log2 Fc MBD3L2: 7.6 log2
  Log2 Fc MED26: 2.1 log2
  Log2 Fc MGC10997: 2.4 log2
  Log2 Fc PABPN1: 2.6 log2
  Log2 Fc PELI1: 2.9 log2
  Log2 Fc PNMA6B: 3.6 log2
  Log2 Fc PRAMEF1: 8.1 log2
  Log2 Fc PVRL3: 2.2 log2
  Log2 Fc RMRP: 2.3 log2
  Log2 Fc RNGTT: 2.0 log2
  Log2 Fc RPPH1: 2.0 log2
  Log2 Fc RRN3: 2.1 log2
  Log2 Fc SFRS2B: 4.2 log2
  Log2 Fc SFRS17A: 2.5 log2
  Log2 Fc SIAH1: 3.7 log2
  Log2 Fc SLC2A14: 2.4 log2
  Log2 Fc SLC34A2: 5.5 log2
  Log2 Fc SNIP1: 2.1 log2
  Log2 Fc SON: 2.1 log2
  Log2 Fc SPRYD5: 8.0 log2
  Log2 Fc SPTY2D1: 3.3 log2
  Log2 Fc TFIP11: 3.2 log2
  Log2 Fc THOC4: 4.0 log2
  Log2 Fc TPRX1: 4.5 log2
  Log2 Fc TRIM23: 2.2 log2
  Log2 Fc TRIM43: 5.8 log2
  Log2 Fc USP29: 2.6 log2
  Log2 Fc ZNF217: 4.1 log2
  Log2 Fc ZNF705A: 6.8 log2
  Log2 Fc ZNHIT6: 3.5 log2
  Log2 Fc ZSCAN2: 2.2 log2
  Log2 Fc ZSCAN4: 8.3 log2
